Experimental data: article PMC12926254, “Novel pyrazole carboxylate derivatives as lonazolac bioisosteres with selective COX-2 inhibition: design, synthesis and anti-inflammatory activity” (Molecular Diversity, 2025)
Where two headings read alike, the source gives them in different places. Marks after values point to notes of the source that are not given here.

Assays:
COX-1 = target: T1, COX-1 (Ovis aries, UniProt P05979); test: In vitro COX-1 inhibition (COX-1 Inhibitor Screening Kit-K548, Biovision); assay type: biochemical; conditions: mean of six values ± standard deviation
T1 construct: purchased Biovision K548
T1 sequence (P05979 25-600): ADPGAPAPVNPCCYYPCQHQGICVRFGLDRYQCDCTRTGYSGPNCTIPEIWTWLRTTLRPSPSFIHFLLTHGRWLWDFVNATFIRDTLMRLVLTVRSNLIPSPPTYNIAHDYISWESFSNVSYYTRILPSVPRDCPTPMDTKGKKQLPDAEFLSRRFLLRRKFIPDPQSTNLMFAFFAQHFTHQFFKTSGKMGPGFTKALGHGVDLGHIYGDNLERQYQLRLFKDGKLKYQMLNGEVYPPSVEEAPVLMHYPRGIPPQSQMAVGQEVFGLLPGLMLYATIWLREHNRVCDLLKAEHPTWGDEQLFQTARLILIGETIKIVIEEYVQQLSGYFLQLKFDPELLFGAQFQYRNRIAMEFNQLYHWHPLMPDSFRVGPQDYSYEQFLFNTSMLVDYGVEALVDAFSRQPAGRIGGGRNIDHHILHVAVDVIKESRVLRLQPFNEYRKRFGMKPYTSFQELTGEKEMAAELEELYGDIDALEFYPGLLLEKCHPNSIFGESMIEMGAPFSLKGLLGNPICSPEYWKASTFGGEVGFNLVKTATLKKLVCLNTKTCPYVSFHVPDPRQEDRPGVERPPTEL
Description: (§1) The IC50 value of the tested compounds was determined.
COX-1 inhibitor Screening Protocol: Dissolve the tested compounds in DMSO. Use COX assay buffer to dilute the relevant test concentration by 10X before using. Place 10 µl of diluted test inhibitor or assay buffer in the specified wells instead of the sample screen (S) or enzyme control (EC; no inhibitor). To one of the wells, add 2 µl of SC560 and 8 µl of COX Assay Buffer as an inhibitor control (IC). Before using, combine 2 µl of COX Cofactor with 398 µl of COX Assay Buffer to dilute COX cofactor 200 times. Blend thoroughly. Just before using, mix 5 µl of the provided arachidonic acid with 5 µl of NaOH to make the arachidonic acid solution. Combine quickly using a vortex. To dilute the arachidonic acid/NaOH solution 10 times, add 90 µl of water. There should be 80 µl of reaction mix in each well. Using a multi-channel pipette, add 10 µl of diluted arachidonic acid/NaOH solution to each well to initiate all the reactions at once.

COX-2 [1] = target: T2, COX-2 (Homo sapiens, UniProt P35354); test: In vitro COX-2 inhibition (COX-2 Inhibitor Screening Kit-K547, Biovision); assay type: biochemical; conditions: for COX-2 S.I.: COX-1 IC50/COX-2 IC50; for IC50: mean of six values ± standard deviation
T2 construct: purchased Biovision K547
T2 sequence (P35354 18-604): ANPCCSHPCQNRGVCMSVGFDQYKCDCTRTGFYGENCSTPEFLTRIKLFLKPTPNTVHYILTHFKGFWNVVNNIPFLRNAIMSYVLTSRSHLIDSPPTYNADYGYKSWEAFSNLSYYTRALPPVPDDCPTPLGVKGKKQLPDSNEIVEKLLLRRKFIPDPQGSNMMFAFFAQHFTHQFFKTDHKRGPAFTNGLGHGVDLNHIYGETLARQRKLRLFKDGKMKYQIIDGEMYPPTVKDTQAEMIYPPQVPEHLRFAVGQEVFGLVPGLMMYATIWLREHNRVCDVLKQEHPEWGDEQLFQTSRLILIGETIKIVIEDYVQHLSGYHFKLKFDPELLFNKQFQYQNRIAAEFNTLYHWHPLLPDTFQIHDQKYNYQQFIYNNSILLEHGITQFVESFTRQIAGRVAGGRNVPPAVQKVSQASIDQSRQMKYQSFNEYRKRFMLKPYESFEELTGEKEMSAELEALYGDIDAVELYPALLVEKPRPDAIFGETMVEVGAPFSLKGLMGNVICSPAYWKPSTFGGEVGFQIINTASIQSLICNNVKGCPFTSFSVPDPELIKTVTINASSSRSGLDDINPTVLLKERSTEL
Description: as §1
COX-2 inhibitor Screening Protocol: Dissolve the tested compounds in DMSO. Use COX Assay Buffer to dilute the relevant test concentration by 10X before using. Place 10 µl of diluted test inhibitor or Assay Buffer in the specified wells instead of the sample screen (S) or enzyme control (EC; no inhibitor). […] Before using, combine 2 µl of COX Cofactor with 398 µl of COX Assay Buffer to dilute COX Cofactor 200 times. Blend thoroughly. Just before using, mix 5 µl of the provided arachidonic acid with 5 µl of NaOH to make the arachidonic acid solution. Combine quickly using a vortex. To dilute the arachidonic acid/NaOH solution 10 times, add 90 µl of water. There should be 80 µl of reaction mix in each well. Using a multi-channel pipette, add 10 µl of diluted arachidonic acid/NaOH solution into each well to initiate the reactions concurrently.

PGE2 [2] = tested on: PGE2; parameters: method as in PMID 36166898; conditions: LPS-stimulated RAW cells; cited from earlier work
COX-2 [3] = target: T2, COX-2; conditions: cited from earlier work
TNF-α = TNF-α production in LPS-activated RAW 264.7 macrophages (ELISA); conditions: Mus musculus, RAW264.7, read-out: TNF-α IC50
PGE2 [4] = test: PGE2 production in LPS-activated RAW 264.7 macrophages (ELISA); conditions: Mus musculus, RAW264.7, read-out: PGE2 IC50
MTS cytotoxicity assay = assay type: cell-based; conditions: mouse, RAW 264.7 macrophages (heading: LPS-induced), read-out: Cytotoxicity IC50 (LPS-induced RAW 264.7 cells)
Description: Using Dulbecco’s Modified Eagle Medium (DMEM, Biowest L0060) supplemented with 10% foetal bovine serum (FBS) (Biowest, S1810) and 1% anti-biotic and anti-mycotic (Biowest, L0010-100), the RAW264.7 macrophage cell line (ATCC ® TIB-71TM) was cultivated. The cells were then incubated at 37 °C with 5% CO2 until they were confluent, which should be between 70 and 80%. After two to three days, the growth media was regularly changed. Trypsin–EDTA was then used to wash and collect the cells (Biowest, L0931-500).
The MTS (3-(4,5-dimethylthiazol-2-yl)-5-(3-carboxymethoxy-phenyl)-2-(4-sulfophenyl)-2H-tetrazolium) test (Promega, ab197010) was used to determine cell viability. In short, a 96-well plate was seeded with 5 × 10^3 cells per well, and the cells were then incubated for 24 h at 37 °C and 5% CO2. The cells were then re-incubated for 24 h at 37 °C and 5% CO2 after the medium was discarded and replaced with 180 µl of fresh growth media and 20 µl of sample (1000 ug, 250 ug, 63 ug, 16 ug, and 4 ug µg/mL). 20 µl of MTS was then added to each well, and the mixture was incubated for three hours at 37 °C with 5% CO2. […] Control cells were those that received no treatment.

gastric mucosa = test: Ulcerogenic liability (ulcer index); assay type: in vivo; conditions: 50 mg/kg orally, three successive days, rats
Description: […]. […] Rats were divided into 7 groups and fasted for 18 h before drug administration. The control group received the vehicle (2.5% Tween 80). […] After 2 h, animals were fed. Rats were given the required dose orally for three successive days. After 2 h of the last dose, rats were sacrificed; the stomach of each rat was removed then opened along the greater curvature and rinsed with saline. In order to examine the stomach, it was stretched by pins on a corkboard. The gastric mucosa was carefully inspected for the occurrence of ulcers with the aid of an illuminated magnifying lens (l0x), then ulcer index was calculated according to the method described by Cho and Ogle. Lesions were counted and measured along the greater diameter using transparent ruler. Every five hemorrhagic spots were considered equivalent to 1 mm of ulcer. The ulcer index (mm) was calculated from the sum of the total length of ulcers and hemorrhagic spots in each stomach.

iNOS = test: Inducible nitric oxide synthase (iNOS) inhibition in LPS-induced RAW 264.7 cells (ELISA); assay type: cell-based; conditions: Mus musculus, RAW264.7
Text: NO is produced from L-arginine by iNOS and is utilized in a variety of cell signaling processes. An inducible member of the NOS family, iNOS is increased during pro-inflammatory cytokine activity as a host-defense mechanism. A commercially available quantitative ELISA kit (ab253219 Mouse iNOS Simple Step ELISA® Kit) will be used to evaluate the iNOS enzyme activity of the substances in the cell lysate in accordance with the manufacturer’s instructions.

[5] = tested on: carrageenan-induced rat paw edema; test: Carrageenan-induced rat paw edema assay; assay type: in vivo; conditions: for Paw edema thickness ± SEM / Paw edema % inhibition: rat
Description: As previously described, paw thickness was evaluated at 1, 3, and 5 h following carrageenan injection at a dose of 50 mg/kg.

[6] = tested on: carrageenan-induced rat paw edema; test: Carrageenan-induced rat paw edema assay; assay type: in vivo; conditions: 25 mg/kg
[7] = 3 h after carrageenan, 50 mg/kg
[8] = 5 h after carrageenan, 50 mg/kg

In the case of `CCOC(=O)COc1ccc(C2=NN(c3ccc(S(C)(=O)=O)cc3)C(c3ccc(C)cc3)C2)cc1` (centres unmarked) [Compound 15b, Ethyl 2-(4-(1-(4-(methylsulfonyl)phenyl)-5-(p-tolyl)-4,5-dihydro-1H-pyrazol-3-yl)phenoxy)acetate], the IC50 (COX-1) is reported as 11.4 ± 0.42 µM, the “COX-2 S.I.” value (COX-2 [1]) is reported as 5.89 and the IC50 (COX-2 [1]) is reported as 1.94 ± 0.064 µM.

With `CCOC(=O)COc1ccc(C2=NN(c3ccc(S(C)(=O)=O)cc3)C(c3ccc(Cl)cc3)C2)cc1` (centres unmarked) [Compound 15e, Ethyl 2-(4-(5-(4-chlorophenyl)-1-(4-(methylsulfonyl)phenyl)-4,5-dihydro-1H-pyrazol-3-yl)phenoxy)acetate] the IC50 (COX-1) was 3.01 ± 0.12 µM, the “COX-2 S.I.” value (COX-2 [1]) was 4.05 and the IC50 (COX-2 [1]) was 0.742 ± 0.025 µM.

In the case of `CCOC(=O)COc1ccc(C2=NN(c3ccc(S(C)(=O)=O)cc3)C(c3ccccc3Br)C2)cc1` (centres unmarked) [Compound 15 g, Ethyl 2-(4-(5-(2-bromophenyl)-1-(4-(methylsulfonyl)phenyl)-4,5-dihydro-1H-pyrazol-3-yl)phenoxy)acetate], the IC50 (COX-1) is reported as 8.59 ± 0.33 µM, the “COX-2 S.I.” value (COX-2 [1]) is reported as 15.07 and the IC50 (COX-2 [1]) is reported as 0.575 ± 0.019 µM.

For `O=C(O)COc1ccc(C(=O)/C=C/c2cn(-c3ccccc3)nc2-c2ccc([N+](=O)[O-])cc2)cc1` [Compound 10], the IC50 (PGE2 [2]) is given as 11 µM.

For `Cc1ccc(N/N=C2\C(=N)N(c3ccc(S(N)(=O)=O)cc3)N=C2N)cc1` [Compound 8a], the “COX-2 selectivity index (S.I.)” value (COX-2 [3]) is listed as 8.41.

In the case of `N=C1/C(=N\Nc2ccc(Cl)cc2)C(N)=NN1c1ccc(S(N)(=O)=O)cc1` [Compound 8b], the “COX-2 selectivity index (S.I.)” value (COX-2 [3]) is listed as 10.55.

In the case of `CCOC(=O)COc1ccc(C2=NN(c3ccc(S(C)(=O)=O)cc3)C(c3ccc([N+](=O)[O-])cc3)C2)cc1` (centres unmarked) [Compound 15f, Ethyl 2-(4-(1-(4-(methylsulfonyl)phenyl)-5-(4-nitrophenyl)-4,5-dihydro-1H-pyrazol-3-yl)phenoxy)acetate], the IC50 (COX-1) is reported as 6.83 ± 0.25 µM, the “COX-2 S.I.” value (COX-2 [1]) is reported as 4.30 and the IC50 (COX-2 [1]) is reported as 1.59 ± 0.052 µM.

For `CCOC(=O)COc1ccc(C2=NN(c3ccc(S(C)(=O)=O)cc3)C(c3ccccc3)C2)cc1` (centres unmarked) [Compound 15a, Ethyl 2-(4-(1-(4-(methylsulfonyl)phenyl)-5-phenyl-4,5-dihydro-1H-pyrazol-3-yl)phenoxy) acetate], the IC50 (COX-1) was 7.42 ± 0.45 µM, the “COX-2 S.I.” value (COX-2 [1]) was 1.90 and the IC50 (COX-2 [1]) was 3.9 ± 0.129 µM.

`Cc1ccc(-c2cc(C(F)(F)F)nn2-c2ccc(S(N)(=O)=O)cc2)cc1` [Celecoxib, celecoxib, reference compound] showed an IC50 (TNF-α) of 0.87 ± 0.03 µM, an IC50 (PGE2 [4]) of 0.38 ± 0.027 µM and an IC50 at 24 h (MTS cytotoxicity assay) of 149 ± 5.3 µM. The “Average no of ulcer” value (gastric mucosa) was 0.48 ± 0.015***^b, the Average severity (gastric mucosa) was 0.66 ± 0.026***^b and the IC50 (iNOS) was 0.48 ± 0.04 µM. For the same compound, the “% inhibition (edema)” value ([5]; 50 mg/kg) was 97.48%, the “Paw edema thickness ± SEM” value ([5]; 1 h after carrageenan, 50 mg/kg) was 3.43 ± 0.004 mm and the “Paw edema % inhibition” value [5, 7] was 38.3%. The “Paw edema thickness ± SEM” value [5, 7] was 3.1 ± 0.011 mm, the “Paw edema % inhibition” value [5, 8] was 56.3% and the “Paw edema thickness ± SEM” value [5, 8] was 2.52 ± 0.0095 mm. For the same compound, the ED50 ([5]; Rattus norvegicus, dose producing 50% edema inhibition) was 40.4 mg/kg and the “% inhibition (edema)” value [6] was 34.97%.
